Publication PMC8815882, “Screening the pandemic response box identified benzimidazole carbamates, Olorofim and ravuconazole as promising drug candidates for the treatment of eumycetoma” (PLoS Neglected Tropical Diseases, 2022)
Like-named read-outs stand apart in the source and are kept apart here.

Tested on: M. mycetomatis genome strain MM55
Assay: CLSI M38-A2 based in vitro susceptibility screening (XTT or resazurin), growth at fixed concentration
Assay type: cell-based, Madurella mycetomatis
Conditions: Madurella mycetomatis; for Percent fungal survival at 100 µM: read-out: Percentage survival at 100um, 100 uM A (second replicate column)
[1] = mean of three, M. mycetomatis MM55, read-out: Percentage survival at 25um, 25 uM mean
[2] = replicate A, M. mycetomatis MM55, read-out: Percentage survival at 25um, 25 um A
[3] = replicate B, M. mycetomatis MM55, read-out: Percentage survival at 25um, 25 uM B
[4] = replicate C, M. mycetomatis MM55, read-out: Percentage survival at 25um, 25 uM C
[5] = mean of three, M. mycetomatis MM55, read-out: Percentage survival at 100um, 100 uM mean
[6] = replicate 1, M. mycetomatis MM55, read-out: Percentage survival at 100um, 100 uM A (first replicate column)
[7] = replicate 2, M. mycetomatis MM55
[8] = replicate 3, M. mycetomatis MM55, read-out: Percentage survival at 100um, 100 uM A (third replicate column)
[9] = mean of three replicates, read-out: Percentage survival at 25um, 25 uM mean
[10] = replicate A, read-out: Percentage survival at 25um, 25 um A
[11] = replicate B, read-out: Percentage survival at 25um, 25 uM B
[12] = replicate C, read-out: Percentage survival at 25um, 25 uM C
[13] = first replicate column, read-out: Percentage survival at 100um, 100 uM A
[14] = mean of three replicates, read-out: Percentage survival at 100um, 100 uM mean
[15] = second replicate column, read-out: Percentage survival at 100um, 100 uM A
[16] = third replicate column, read-out: Percentage survival at 100um, 100 uM A
[17] = mean of replicates, read-out: Percentage survival at 25um, 25 uM mean
[18] = mean of replicates, read-out: Percentage survival at 100um, 100 uM mean
[19] = replicate 1, read-out: Percentage survival at 100um, 100 uM A (first replicate column)
[20] = replicate 3, read-out: Percentage survival at 100um, 100 uM A (third replicate column)
[21] = mean of replicates, MM55, read-out: Percentage survival at 25um, 25 uM mean
[22] = replicate A, MM55, read-out: Percentage survival at 25um, 25 um A
[23] = replicate B, MM55, read-out: Percentage survival at 25um, 25 uM B
[24] = replicate C, MM55, read-out: Percentage survival at 25um, 25 uM C
[25] = mean of replicates, MM55, read-out: Percentage survival at 100um, 100 uM mean
[26] = replicate 1, MM55, read-out: Percentage survival at 100um, 100 uM A
[27] = replicate 2, MM55, read-out: Percentage survival at 100um, 100 uM A
[28] = replicate 3, MM55, read-out: Percentage survival at 100um, 100 uM A

CC(C)(C)c1ccc(OCCn2nc(C(=O)O)c3ccccc3c2=O)cc1 [MMV1634387]
activity at 25 µM [1]: 81.2% | activity at 25 µM [2]: 89.9% | activity at 25 µM [3]: 84.5% | activity at 25 µM [4]: 69.2% | activity at 100 µM [5]: 66.6% | activity at 100 µM [6]: 80.6% | Percent fungal survival at 100 µM [7]: 37.8% | activity at 100 µM [8]: 81.3%

CC(C)N(c1cc(-c2ccccc2)sc1C(=O)O)C(=O)[C@H]1CC[C@H](C)CC1 [MMV1634388]
activity at 25 µM [9]: 90% | activity at 25 µM [10]: 89.7% | activity at 25 µM [11]: 99.2% | activity at 25 µM [12]: 81.2% | activity at 100 µM [13]: 83.3% | activity at 100 µM [14]: 76.1% | activity at 100 µM [15]: 68.1% | activity at 100 µM [16]: 77%

Nc1nc(C(F)(F)F)cc2c1[nH]c(=O)n2Cc1ccccc1 [MMV1634389]
activity at 25 µM [17]: 83.5% | activity at 25 µM [10]: 74.5% | activity at 25 µM [11]: 96.8% | activity at 25 µM [12]: 79.4% | activity at 100 µM [18]: 61.6% | activity at 100 µM [19]: 36.1% | Percent fungal survival at 100 µM (replicate 2): 67.1% | activity at 100 µM [20]: 81.6%

CCNC(=O)Nc1cc2c(-c3ccnc(C)c3)ccc(CNC(=O)OC)c2cn1 [MMV1634390]
activity at 25 µM [1]: 86.2% | activity at 25 µM [2]: 98.4% | activity at 25 µM [3]: 81% | activity at 25 µM [4]: 79.2% | activity at 100 µM [5]: 52.4% | activity at 100 µM [6]: 60.4% | Percent fungal survival at 100 µM [7]: 7.35% | activity at 100 µM [8]: 89.5%

Cn1cc(NC(=O)c2cc(NC(=O)c3ccc(/C=C/c4cnc5ccccc5c4)cc3)cn2C)cc1C(=O)NCCN1CCOCC1 [MMV1634391]
activity at 25 µM [17]: 73.9% | activity at 25 µM [10]: 63.4% | activity at 25 µM [11]: 79.1% | activity at 25 µM [12]: 79.2% | activity at 100 µM [18]: 60.7% | activity at 100 µM (replicate 1, read-out: Percentage survival at 100um, 100 uM A): 61% | activity at 100 µM (replicate 2, read-out: Percentage survival at 100um, 100 uM A): 53.1% | activity at 100 µM (replicate 3, read-out: Percentage survival at 100um, 100 uM A): 68%

CCCCc1ccc(-c2nc(C)c(C(=O)OC)s2)cc1 [MMV1634392]
activity at 25 µM [21]: 77.2% | activity at 25 µM [22]: 84.6% | activity at 25 µM [23]: 81.9% | activity at 25 µM [24]: 65.1% | activity at 100 µM [25]: 65.3% | activity at 100 µM [26]: 48.8% | activity at 100 µM [27]: 54.8% | activity at 100 µM [28]: 92.3%

CC(C)(C)c1ccc(C(Cn2cccc(C(F)(F)F)c2=O)NC2Cc3ccccc3C2)cc1 (stereo not drawn) [MMV1634393]
activity at 25 µM [21]: 62.5% | activity at 25 µM [22]: 51.3% | activity at 25 µM [23]: 64.6% | activity at 25 µM [24]: 71.7% | activity at 100 µM [25]: 66.7% | activity at 100 µM [26]: 63.7% | activity at 100 µM [27]: 74.2% | activity at 100 µM [28]: 62.2%

Cc1ccc(N2CCC(CCOc3ccc(S(C)(=O)=O)cc3)CC2)nn1 [MMV1634394]
activity at 25 µM [9]: 86.9% | activity at 25 µM [10]: 79.1% | activity at 25 µM [11]: 80.9% | activity at 25 µM [12]: 101% | activity at 100 µM [13]: 52.8% | activity at 100 µM [14]: 63.9% | activity at 100 µM [15]: 75.2% | activity at 100 µM [16]: 63.7%

CCc1c(OCC2CCC2)c2cc(F)ccc2[nH]c1=O [MMV1634395]
activity at 25 µM [9]: 67.1% | activity at 25 µM [10]: 59.4% | activity at 25 µM [11]: 71.5% | activity at 25 µM [12]: 70.4% | activity at 100 µM [13]: 62.9% | activity at 100 µM [14]: 55.6% | activity at 100 µM [15]: 45.1% | activity at 100 µM [16]: 58.8%

O=C(c1nc2c(C(F)(F)F)cc(C3CC3)cn2c1Cl)N1CCN([C@H]2CC[C@H](O)CC2)C(=O)C1 [MMV1634396]
activity at 25 µM [9]: 94.9% | activity at 25 µM [10]: 99.5% | activity at 25 µM [11]: 104% | activity at 25 µM [12]: 81.4% | activity at 100 µM [13]: 92.3% | activity at 100 µM [14]: 86.8% | activity at 100 µM [15]: 90.6% | activity at 100 µM [16]: 77.4%

COc1ccc(CNC(=O)C2CCN([C@H](C)c3cccc4ccccc34)CC2)cc1 [MMV1634397]
activity at 25 µM [21]: 45.7% | activity at 25 µM [22]: 62.4% | activity at 25 µM [23]: 66.9% | activity at 25 µM [24]: 7.76% | activity at 100 µM [25]: 4.13% | activity at 100 µM [26]: 3.82% | activity at 100 µM [27]: -0.868% | activity at 100 µM [28]: 9.43%

CCOc1ccc(/C=N/NC(=O)C2CC2c2ccc(C(C)(C)C)cc2)cc1OCC (stereo not drawn) [MMV1634398]
activity at 25 µM [17]: 85.9% | activity at 25 µM [10]: 88.3% | activity at 25 µM [11]: 97.5% | activity at 25 µM [12]: 72% | activity at 100 µM [18]: 81.1% | activity at 100 µM [19]: 88.5% | Percent fungal survival at 100 µM (replicate 2): 87.7% | activity at 100 µM [20]: 67.1%

Cc1ccc(C)c(OCCCCCCN2C[C@H](O)[C@@H](O)[C@H](O)[C@H]2CO)c1 [MMV1634401]
activity at 25 µM [9]: 82.7% | activity at 25 µM [10]: 64.4% | activity at 25 µM [11]: 87.6% | activity at 25 µM [12]: 96.1% | activity at 100 µM [13]: 83.4% | activity at 100 µM [14]: 82.2% | activity at 100 µM [15]: 82.8% | activity at 100 µM [16]: 80.5%

CS(=O)(=O)c1ccc(Oc2ccc(Cl)cc2)cc1 [MMV1634404]
activity at 25 µM [9]: 85.3% | activity at 25 µM [10]: 90% | activity at 25 µM [11]: 98% | activity at 25 µM [12]: 68% | activity at 100 µM [14]: 50.7% | activity at 100 µM [19]: 44.2% | Percent fungal survival at 100 µM (replicate 2): 49% | activity at 100 µM [20]: 59%

CCc1cc(CCCOc2c(C)cc(-c3noc(C(F)(F)F)n3)cc2C)on1 [MMV1634556]
activity at 25 µM [9]: 87% | activity at 25 µM [10]: 70.7% | activity at 25 µM [11]: 105% | activity at 25 µM [12]: 85.5% | activity at 100 µM [13]: 76.5% | activity at 100 µM [14]: 73% | activity at 100 µM [15]: 74.6% | activity at 100 µM [16]: 68%

COc1cc(C2C3=C(CC(C)(C)CC3=O)Nc3ccccc3N2C(C)=O)ccc1OCc1ccccc1 (stereo not drawn) [MMV1634557]
activity at 25 µM (mean, read-out: Percentage survival at 25um, 25 uM mean): 82.1% | activity at 25 µM [10]: 90.5% | activity at 25 µM [11]: 79.1% | activity at 25 µM [12]: 76.6% | activity at 100 µM (mean, read-out: Percentage survival at 100um, 100 uM mean): 85.5% | activity at 100 µM (replicate (first column), read-out: Percentage survival at 100um, 100 uM A): 92.5% | activity at 100 µM (replicate (second column), read-out: Percentage survival at 100um, 100 uM A): 79.5% | activity at 100 µM (replicate (third column), read-out: Percentage survival at 100um, 100 uM A): 84.5%

Nc1nc(=O)c(Br)c(-c2cccc(Cl)c2)[nH]1 [MMV1645152]
activity at 25 µM [9]: 84.5% | activity at 25 µM [10]: 79.7% | activity at 25 µM [11]: 91.3% | activity at 25 µM [12]: 82.6% | activity at 100 µM [13]: 87.5% | activity at 100 µM [14]: 75.8% | activity at 100 µM [15]: 77.5% | activity at 100 µM [16]: 62.2%

CCc1nc2ccccn2c1C(=O)NCc1ccccc1 [MMV1663457]
activity at 25 µM [1]: 64.2% | activity at 25 µM [2]: 58% | activity at 25 µM [3]: 69.7% | activity at 25 µM [4]: 64.8% | activity at 100 µM [5]: 64.3% | activity at 100 µM [6]: 52.2% | Percent fungal survival at 100 µM [7]: 54% | activity at 100 µM [8]: 86.6%

O=C(NCc1ccc(F)cc1)c1c(O)c2ncccc2[nH]c1=O [MMV1782097]
activity at 25 µM [21]: 95.5% | activity at 25 µM [22]: 97.7% | activity at 25 µM [23]: 100% | activity at 25 µM [24]: 88.2% | activity at 100 µM [25]: 82.8% | activity at 100 µM [26]: 86.6% | activity at 100 µM [27]: 79.1% | activity at 100 µM [28]: 82.7%

CCCCN1C[C@H](O)[C@@H](O)[C@H](O)[C@H]1CO [MMV1782098]
activity at 25 µM [21]: 95.7% | activity at 25 µM [22]: 96.4% | activity at 25 µM [23]: 111% | activity at 25 µM [24]: 79.8% | activity at 100 µM [25]: 68% | activity at 100 µM [26]: 94.4% | activity at 100 µM [27]: 27.4% | activity at 100 µM [28]: 82.2%

COc1cc(C(C)(C)CCCC(C)C)cc(OC)c1OC [MMV1782102]
activity at 25 µM [9]: 78.4% | activity at 25 µM [10]: 88.5% | activity at 25 µM [11]: 83% | activity at 25 µM [12]: 63.5% | activity at 100 µM [13]: 90.3% | activity at 100 µM [14]: 83.9% | activity at 100 µM [15]: 86% | activity at 100 µM [16]: 75.5%
